Legend:
[1] = Inhibition of HIV1 JRFL gp120-mediated CHO cells fusion to HeLaP4 cells by HIV LTR-beta galactosidase reporter assay; format: cell-based; details: Human immunodeficiency virus 1, JRFL
[2] = Lipophilicity, log D at pH 7.4; format: physicochemical; details: buffer
[3] = Cytotoxicity against human HeLaP4 cells; format: cell-based
in vitro [4] = details: human, liver microsomes
[5] = Bioavailability in rat at 1 mg/kg; format: ADME, organism-based; details: in vivo
[6] = Half life in rat at 1 mg/kg, iv and 1 mg/kg, po; format: ADME, organism-based; details: in vivo
[7] = Plasma protein binding in rat at 1 mg/kg, iv and 1 mg/kg, po; format: ADME, organism-based; details: read-out: PPB (converted)
[8] = Clearance in rat at 1 mg/kg, iv and 1 mg/kg, po; format: ADME, organism-based; details: in vivo
[9] = Volume of distribution in rat at 1 mg/kg, iv and 1 mg/kg, po; format: ADME, organism-based; details: in vivo
in vitro [10] = details: rat, liver microsomes
[11] = tested on: Human immunodeficiency virus 1; assay: Antiviral activity against Human immunodeficiency virus 1 NL4-3 assessed as inhibition of viral entry in HeLaP4 cells after 5 days by beta galactosidase reporter assay; format: functional, organism-based; details: Human immunodeficiency virus 1, NL4-3, HeLaP4, 120 h
[12] = tested on: Human immunodeficiency virus 1; assay: Antiviral activity against Human immunodeficiency virus 1 BR92023 infected human PBMC cells by Phenosense assay; format: functional, organism-based; details: Human immunodeficiency virus 1, BR92023, PBMC
[13] = tested on: Human immunodeficiency virus 1; assay: Antiviral activity against Human immunodeficiency virus 1 BR92004 infected human PBMC cells by Phenosense assay; format: functional, organism-based; details: Human immunodeficiency virus 1, BR92004, PBMC
[14] = tested on: Human immunodeficiency virus 1; assay: Antiviral activity against Human immunodeficiency virus 1 3B infected human PBMC cells by Phenosense assay; format: functional, organism-based
[15] = tested on: Human immunodeficiency virus 1; assay: Antiviral activity against Human immunodeficiency virus 1 BaL infected human PBMC cells by Phenosense assay; format: functional, organism-based

IC50 [1] [µM]	logD [2]	microsomal CLint (in vitro [4]) [µL/min/mg]	Compound	CC50 [3] [µM]	further results
2	1.4	< 8	CNC(=O)c1ccc(OC(C)C(=O)N2CCN(C(=O)c3ccccc3)C[C@H]2C)c(F)c1 (mixture of isomers)	> 10	–
> 25	1.1	31	CC(Oc1ccccc1C(=O)N(C)C)C(=O)N1CCN(C(=O)c2ccccc2)C[C@H]1C (mixture of isomers)	> 10	–
0.017	1	< 8	CNC(=O)c1ccc(O[C@@H](C)C(=O)N2CCN(C(=O)c3ccccc3)C[C@H]2C)c(OC)c1	> 10	bioavailability [5]: 48%; half-life [6]: 0.7 h; fraction unbound [7]: 0.81; clearance [8]: 75 mL/min/kg; Vd [9]: 4.3 L/kg; half-life (in vitro [10]): > 2 h; IC50 [11]: 0.003 µM
0.1	–	158	Cc1ccc(OC(C)C(=O)N2CCN(C(=O)c3ccccc3)C[C@H]2C)cc1C (mixture of isomers)	> 10	–
> 25	0.9	< 8	CC(Oc1ccc(C(=O)N(C)C)cc1)C(=O)N1CCN(C(=O)c2ccccc2)C[C@H]1C (mixture of isomers)	> 10	–
0.257	–	–	CNC(=O)c1ccc(O[C@@H](C)C(=O)N2CCN(C(=O)c3ccccc3)C[C@H]2C)c(OC)n1 (mixture of isomers)	> 10	–
1.4	1.3	< 8	CNC(=O)c1cccc(OC(C)C(=O)N2CCN(C(=O)c3ccccc3)C[C@H]2C)c1 (mixture of isomers)	> 10	–
0.011	0.7	< 8	CNC(=O)c1cc(OC)c(O[C@@H](C)C(=O)N2CCN(C(=O)c3ccccc3)C[C@H]2C)cn1 (mixture of isomers)	> 10	IC50 [12]: 0.0006 µM; IC50 [13]: 0.006 µM; bioavailability [5]: 65%; half-life [6]: 1 h; fraction unbound [7]: 0.69; Vd [9]: 1.5 L/kg; IC50 [14]: 0.01 µM; IC50 [15]: 0.025 µM; half-life (in vitro [10]): > 2 h; IC50 [11]: 0.002 µM
> 2	–	–	CNC(=O)c1ccc(O[C@H](C)C(=O)N2CCN(C(=O)c3ccccc3)C[C@H]2C)c(OC)c1	> 10	–
12	1.2	< 8	CNC(=O)c1cccc(OC(C)C(=O)N2CCN(C(=O)c3ccccc3)C[C@H]2C)c1C (mixture of isomers)	> 10	–
0.075	2.1	141	Cc1c(OC(C)C(=O)N2CCN(C(=O)c3ccccc3)C[C@H]2C)cccc1-c1ncno1 (mixture of isomers)	> 10	–
2.7	–	–	CNC(=O)c1ccc(OC(C)C(=O)N2CCN(C(=O)c3ccccc3)C[C@H]2C)cc1OC (mixture of isomers)	> 10	–
> 2	–	–	CCOc1cc(C(=O)NC)ccc1OC(C)C(=O)N1CCN(C(=O)c2ccccc2)C[C@H]1C (mixture of isomers)	> 10	–
> 25	1	12	CC(Oc1cccc(C(=O)N(C)C)c1)C(=O)N1CCN(C(=O)c2ccccc2)C[C@H]1C (mixture of isomers)	> 10	–
2.6	1.1	< 8	CNC(=O)c1ccc(OC(C)C(=O)N2CCN(C(=O)c3ccccc3)C[C@H]2C)cc1 (mixture of isomers)	> 10	–
> 10	1	< 8	CNC(=O)c1cccc(OC(C)C(=O)N2CCN(C(=O)c3ccccc3)C[C@H]2C)c1OC (mixture of isomers)	> 10	–
> 25	1.5	23	CNC(=O)c1ccccc1OC(C)C(=O)N1CCN(C(=O)c2ccccc2)C[C@H]1C (mixture of isomers)	> 10	–
0.035	2.3	61	CC(Oc1cccc(-c2ccn[nH]2)c1)C(=O)N1CCN(C(=O)c2ccccc2)C[C@H]1C (mixture of isomers)	> 10	–
1	–	–	CC(Oc1cccc(Cl)c1)C(=O)N1CCN(C(=O)c2ccccc2)C[C@H]1C (stereo not given in full)	> 10	–
1	1.1	< 8	CNC(=O)c1ccc(OC(C)C(=O)N2CCN(C(=O)c3ccccc3)C[C@H]2C)cc1C (mixture of isomers)	> 10	–
2.9	1.8	< 8	CNC(=O)c1ccc(OC(C)C(=O)N2CCN(C(=O)c3ccccc3)C[C@H]2C)c(C)c1 (mixture of isomers)	> 10	–

— ChEMBL document CHEMBL1155287, “Discovery of a small molecule inhibitor through interference with the gp120-CD4 interaction” (Bioorg Med Chem Lett, 2009)
